Measured values reported in patent publication US9808004B2, “Synergistic combination to improve grape color and to alter sensory characteristics of wine” (Valent BioSciences Corporation, priority 2007, dated 2017).

How the values were obtained:
[1] = Quality of wine from treated Cabernet Sauvignon grapes (colour density, phenolics, tasting panel score); design: species or system grape; details: for Wine assessment: tasting panel score from 5 characteristics (color intensity, aroma intensity, body/fullness, flavor intensity, finish), 200 ppm of each compound at veraison
Protocol: (§1) A replicated field experiment was conducted on the red wine grape cultivar ‘Cabernet Sauvignon’ in the Riverland growing region of South Australia. The vineyard was 19 years old with a vine spacing of 3 m by 3 m. The plot size was nine vines/replicate with three replicates/treatment. […] Treatments were mixed with the adjuvant Agral 600 (10 mL/100 L v/v; CropCare Australasia, Pty Ltd.).

[2] = tested on: red table grape cultivar 'Crimson Seedless'; test: Replicated field experiment on Crimson Seedless table grapes: colour development (harvestable clusters), firmness, berry weight, Brix; Synergy Index; details: for Firmness: at harvest; for Cumulative harvestable clusters: foliar, veraison plus seven days, Crimson Seedless; for Effect on cumulative harvestable cluster number (in words): applied alone, dose-dependent, 88 to 877 mg/vine; for Dose acting alone which produced the end point (QA, QB): end point 24.7 cumulative harvestable clusters
Excerpt: The vineyard was 12 years old and on overhead trellis with a vine spacing of 12 ft by 7 ft (518 vines/acre). Plot size was three vines/replicate, with six replicates/treatments. The area evaluated within each plot was one center vine and two half vines on each side for a total of two vines. Applications were made seven days after veraison (beginning of berry softening). On the day of application, red coloration was developing on about 10% of the berries. […] All treatments were mixed with the adjuvant Latron B-1956 (0.05% v/v; Dow AgroSciences LLC, Indianapolis, Ind.). Treatments were applied with a backpack mist blower at 200 gallons/acre (757 l/acre).
The total grape clusters were counted on the day of application. After treatment, the plots were evaluated weekly for color development by counting the number of harvestable colored grape clusters in each plot. All harvestable colored clusters were removed 79 days later to eliminate over-mature clusters. The number of harvestable colored grape clusters was expressed as cumulative harvestable clusters (number of harvestable clusters per two vines). Average berry firmness, weight and Brix (soluble solids) were evaluated 5 days later. Evaluation samples consisted of 10 second shoulders (second lateral branch of the main rachis) from 10 different clusters selected randomly from each plot. All berries in the evaluation samples were removed, counted, and weighed. A sub-sample of 20 to 30 berries was crushed for brix (soluble solids) analysis. Brix was measured with a handheld temperature compensating Leica Refractometer. An additional 10 berries were selected randomly for berry firmness. Berry firmness was determined by a hand held Wilson Penetrometer (0 to 1000 g) mounted on a stand with a 6 mm tip.
Synergy was determined by an industrially accepted method (Kull et al., 1961, Applied Microbiology 9:538-541 and Robertson and Ramesh, 1998, U.S. Pat. No. 5,716,629). Synergy Index=Qa/QA+Qb/QB where:
Qa=dose of compound A in mg/vine, in the mixture, which produced an end point
QA=dose of compound A in mg/vine, acting alone, which produced an end point.
Qb=[…] of compound B in mg/vine, in the mixture, which produced an end point.
QB=dose of compound B in mg/vine, acting alone, which produced an end point.
Synergy, additivity, or antagonism are shown when the Synergy Index is less than one, equal to one, or greater than one, respectively.

[3] = tested on: red wine grape cultivar 'Cabernet Sauvignon'; test: Replicated field experiment on Cabernet Sauvignon wine grapes: grape quality at harvest; format: in vivo; details: 200 ppm of each compound applied, foliar at veraison
Protocol: as §1

[4] = 88 mg/vine of each compound applied
[5] = 292 mg/vine of each compound applied
[6] = 200 ppm of each compound applied, foliar at veraison, Cabernet Sauvignon

Q: Which results are given for `O=P(O)(O)CCCl` [Ethephon]?
A: Wine assessment [1]: 2.3; Wine assessment ([1]; listed as ethephon): did not affect; Firmness [2, 4]: 765 g; Cumulative harvestable clusters [2, 4]: 9.2 no. per two vines; Cumulative harvestable clusters [2, 5]: 15.7 no. per two vines; Firmness ([2]; 877 mg/vine): 709 g; Cumulative harvestable clusters ([2]; 877 mg/vine): 40.2 no. per two vines; Effect on cumulative harvestable cluster number (in words) [2]: increased; Dose acting alone which produced the end point (QA, QB) [2]: 484 mg/vine

Q: For “(S)-5-(1-hydroxy-2,6,6,-trimethyl-4-oxo-2-cyclohexen-1-yl)-3-methyl-(2Z,4E)-pentadienoic acid [S-ABA]”, which “Anthocyanins, grapes at harvest” value [3] is on record?
A: The value was “lower than in the untreated”.

Q: And the “Anthocyanins, grapes at harvest” value ([3]; listed as ABA)?
A: Its value is 0.78 mg/g.

Q: And the Wine color density [1, 6]?
A: The Wine color density was “lower than in the untreated”.

Q: What about the Wine phenolics [1, 6] of the same compound?
A: Its Wine phenolics is 20.2.

Q: And the Wine color density ([1]; 200 ppm of each compound applied, foliar at veraison, Cabernet Sauvignon, listed as ABA)?
A: Its Wine color density is 5.6.

Q: And the Wine assessment [1]?
A: The Wine assessment was “higher wine assessment score”.

Q: And the Wine assessment ([1]; listed as ABA)?
A: The Wine assessment was 2.7.

Q: What about the Cumulative harvestable clusters [2, 4] of the same compound?
A: Its Cumulative harvestable clusters is 11.8 no. per two vines.

Q: What about the Cumulative harvestable clusters [2, 5] of the same compound?
A: Its Cumulative harvestable clusters is 38.0 no. per two vines.

Q: And the Cumulative harvestable clusters ([2]; 877 mg/vine)?
A: The Cumulative harvestable clusters was 43.8 no. per two vines.

Q: And the “Effect on cumulative harvestable cluster number (in words)” value [2]?
A: The value was “increased”.

Q: And the “Dose acting alone which produced the end point (QA, QB)” value [2]?
A: The value was 337 mg/vine.
